Measured values reported in patent publication US4551547A, “Biocidal 2-aryl-1, 3-cyclopentanedione enol ester compounds” (Union Carbide Corporation, priority 1983, dated 1985).
Values after ≈ are worked out from the molar mass of the structure shown.

Experiments:
[1] = system: two-spotted mite (adults and nymphal stages); assay: Mite Foliage Spray Test (adults and nymphs); format: in vivo, Tetranychus urticae (Koch); design: key to Miticidal, Adult: A: Excellent Control; B: Partial Control; No Control; settings: for Miticidal, Adult: Table II, mortality count after four days
Protocol: Suspensions of the test compounds were prepared by dissolving one gram of compound in 50 milliliters of acetone in which had been dissolved 0.1 gram (10 percent of the weight of compound) of an alkylphenoxyethanol sufactant, as an emulsifying or dispersing agent. The resulting solution was mixed into 160 milliliters of water to give roughly 200 milliliters of a suspension containing the compound in finely divided form. The thus prepared stock suspension contained 0.5 percent by weight of compound. The test concentrations employed in the tests described below were obtained by diluting the stock suspension with water. The test procedures were as follows: Adults and nymphal stages of the two-spotted mite (Tetranychus urticae (Koch)), reared on Tender-green beam plants at 80±5° F. and 50±5 percent relative humidity, were the tests organisms. Infested leaves from a stock culture were placed of the primary leaves of two bean plants six to eight inches in height, growing in a two-and-a-half inch clay pot. 150-200 Mites, a sufficient number for testing, transferred from the excised leaves to the fresh plants in a period of twenty-four hours. Following the twenty-four hour transfer period, the excised leaves were removed from the infested plants. The test compounds were formulated by diluting the stock suspension with water to provide suspensions containing the desired amount of test compound per million parts of final formulation. The potted plants (one pot per compound) were placed on a revolving turntable and sprayed with 100-110 milliliters of tests compound formulation by use of a DeVilbis spray gun set at 40 psi, air pressure. This application, which lasted 30 seconds, was sufficient to wet the plants to run-off. As a control, 100-110 milliliters of a water solution containing acetone and emulsifier in the same concentrations as the test compound formulation, but containing no test compound, were also sprayed on infested plants. The sprayed plants were held at 80±5° F. and 50±5 percent relative humidity for four days, after which, a mortality count of motile forms was made on the leaves of the test plants. Any individual which was capable of locomotion upon prodding was considered living. In these tests the pesticidal activity of the compounds against mites and mite eggs was rated as follows: Tests were conducted in accordance with the procedures given at pages 17 to 21 supra. The results are expressed in the same manner as used in Table II, except with respect to miticidal activity. For mite adult and mite egg comparison purposes, results are given in parts per million (ppm) required for a 50 percent kill of mites or eggs, respectively.

Bean = assay: Post-emergent herbicidal test, bean; format: in vivo; design: key: 1: no perceptible injury; 2: intermediate degrees of injury; 3: intermediate degrees of injury; 4: intermediate degrees of injury; 5: the plant was dead; settings: 2500 parts per million, after ten days; for Post-emergent Herbicidal, Bean: Table II
Protocol: (§1) Suspensions of the test compounds were prepared by dissolving one gram of compound in 50 milliliters of acetone in which had been dissolved 0.1 gram (10 percent of the weight of compound) of an alkylphenoxyethanol sufactant, as an emulsifying or dispersing agent. The resulting solution was mixed into 160 milliliters of water to give roughly 200 milliliters of a suspension containing the compound in finely divided form. The thus prepared stock suspension contained 0.5 percent by weight of compound. The test concentrations employed in the tests described below were obtained by diluting the stock suspension with water. The test procedures were as follows:
(§2) Experiments were also conducted to determine the phytotoxicity of representative compositions with respect to healthy fresh plants. Solutions of the compounds were prepared as described above to provide a concentration of 2500 parts per million of the test compound. The test plants were sprayed in accordance with the procedure described above for the Mite Foliage Spray Test so as to deliver approximately 100 milliliters of test solutions to the leaves of each plant tested. The sprayed plants and controls were set aside for approximately one hour to allow the solutions to dry and were then placed in the greenhouse. After ten days the plants were visually inspected to determine the extent of foliage injury. A rating of 1 indicates no perceptible injury; 5 indicates the plant was dead and ratings of 2, 3 and 4 indicate intermediate degrees of injury based upon the number and extent to which leaves were injured.

Corn = assay: Post-emergent herbicidal test, corn; format: in vivo; design: key: 1: no perceptible injury; 2: intermediate degrees of injury; 3: intermediate degrees of injury; 4: intermediate degrees of injury; 5: the plant was dead; settings: 2500 parts per million, after ten days; for Post-emergent Herbicidal, Corn: Table II
Protocol: as §1, §2

Tomato = assay: Post-emergent herbicidal test, tomato; format: in vivo; design: key: 1: no perceptible injury; 2: intermediate degrees of injury; 3: intermediate degrees of injury; 4: intermediate degrees of injury; 5: the plant was dead; settings: 2500 parts per million, after ten days; for Post-emergent Herbicidal, Tomato: Table II
Protocol: as §1, §2

Cotton = assay: Post-emergent herbicidal test, cotton; format: in vivo; design: key: 1: no perceptible injury; 2: intermediate degrees of injury; 3: intermediate degrees of injury; 4: intermediate degrees of injury; 5: the plant was dead; settings: 2500 parts per million, after ten days; for Post-emergent Herbicidal, Cotton: Table II
Protocol: as §1, §2

Soybean = assay: Post-emergent herbicidal test, soybean; format: in vivo; design: key: 1: no perceptible injury; 2: intermediate degrees of injury; 3: intermediate degrees of injury; 4: intermediate degrees of injury; 5: the plant was dead; settings: 2500 parts per million, after ten days; for Post-emergent Herbicidal, Soybean: Table II
Protocol: as §1, §2

Perennial rye grass = assay: Preliminary herbicide seed germination test (pre-emergent), perennial rye grass; format: in vivo, Solium perenne; design: key: 5: no seedling emerged; 4: few seedlings emerged and/or very severe stunting; 3: moderate reduction in stand and/or moderate stunting.; 2: very slight reduction in stand and/or slight stunting; 1: no injury, seedlings appear no different with respect to stand or growth than untreated controls; settings: ten to twelve days after application
Protocol: as §1
(§3) The following seeds were used in this test:
Perennial rye grass--Solium perenne
(§4) Two […] mixtures were prepared as follows:
(§5) Each of the above mixtures was rolled separately in 5 gallon containers for approximately one-half hour on ball mill to insure uniform mixing of seeds and soil. For each compound four 3-inch pots were filled with soil to within 11/2 inches of top of pots. To two of these pots were added 70 cc. of Mixture I. To the remaining 2 pots were added 70 cc. of Mixture II. The seed-soil mixture was tamped firmly, and the pots were removed to the greenhouse and watered lightly. About 2 hours after planting, 25 milliliters of the test formulation were added to one pot containing Mixture I and one pot containing Mixture II. An equal volume of a water solution containing acetone and an emulsifier in the same concentration as the herbicidal mixture but without the candidate herbicide was also added to each of the soil-seed mixtures. These pots are used as check or control units. The test compounds were formulated by diluting the stock suspension with water to obtain the desired concentration of the compound in parts per million of the final formulation. Each compound was tested at the same concentration. […] Ratings were made according to the following designations: […]

Crabgrass = assay: Preliminary herbicide seed germination test (pre-emergent), crabgrass; format: in vivo, Digitaria sanguinalis; design: key: 5: no seedling emerged; 4: few seedlings emerged and/or very severe stunting; 3: moderate reduction in stand and/or moderate stunting.; 2: very slight reduction in stand and/or slight stunting; 1: no injury, seedlings appear no different with respect to stand or growth than untreated controls; settings: ten to twelve days after application
Protocol: as §1, §3
Crabgrass--Digitaria sanguinalis
as §4, §5

[2] = system: Red root pigweed (Amaranthus); assay: Preliminary herbicide seed germination test (pre-emergent), red root pigweed; format: in vivo, Amaranthus retroflexus; design: key: 5: no seedling emerged; 4: few seedlings emerged and/or very severe stunting; 3: moderate reduction in stand and/or moderate stunting.; 2: very slight reduction in stand and/or slight stunting; 1: no injury, seedlings appear no different with respect to stand or growth than untreated controls; settings: ten to twelve days after application
Protocol: as §1, §3
Red root pigweed--Amaranthus retroflexus
as §4, §5

| SMILES | Miticidal, Adult [1] | Post-emergent Herbicidal, Bean (Bean) | Post-emergent Herbicidal, Corn (Corn) | Post-emergent Herbicidal, Tomato (Tomato) | Post-emergent Herbicidal, Cotton (Cotton) | Post-emergent Herbicidal, Soybean (Soybean) | Pre-emergent Herbicidal, Rye (Perennial rye grass; Table II) | Pre-emergent Herbicidal, Crabgrass (Crabgrass; Table II) | Pre-emergent Herbicidal, Amaranthus ([2]; Table II) | LC50 ([1]; Tetranychus urticae, foliar, Table III, ppm required for a 50 percent kill of mites, read-out: Miticidal LD50, Adult) [µg/mL] | Post Emergent Herbicidal, Bean (Bean; Table III) | Post Emergent Herbicidal, Corn (Corn; Table III) | Post Emergent Herbicidal, Tomato (Tomato; Table III) | Post Emergent Herbicidal, Cotton (Cotton; Table III) | Post Emergent Herbicidal, Soybean (Soybean; Table III) | Pre-emergent Herbicidal, Rye (Perennial rye grass; Table III) | Pre-emergent Herbicidal, Crabgrass (Crabgrass; Table III) | Pre-emergent Herbicidal, Amaranthus ([2]; Table III) |
| --- | --- | --- | --- | --- | --- | --- | --- | --- | --- | --- | --- | --- | --- | --- | --- | --- | --- | --- |
| CCCCCCCCCC(=O)OC1=C(c2cc(C)ccc2C)C(=O)C2CCCCC12 (stereo not drawn) [Compound 32] | A | 1 | 2 | 1 | 1 | 1 | 1 | 1 | 1 |  |  |  |  |  |  |  |  |  |
| CCCCCCCCCCCCCCCC(=O)OC1=C(c2cc(C)ccc2C)C(=O)CC1 [Compound 14] | A | 2 | 1 | 3 | 3 | 3 | 4 | 1 | 1 |  |  |  |  |  |  |  |  |  |
| CC(=O)OC1=C(c2ccc(C)cc2C)C(=O)C2CCCCC12 (stereo not drawn) [Compound 25] | A | 1 | 3 | 2 | 3 | 2 | 5 | 5 | 3 |  |  |  |  |  |  |  |  |  |
| Cc1ccc(C)c(C2=C(OC(=O)C(C)C)C3CCCCC3C2=O)c1 (stereo not drawn) [Compound 29] | A | 1 | 2 | 1 | 2 | 2 | 1 | 1 | 1 |  |  |  |  |  |  |  |  |  |
| CCCCC(CC)C(=O)OC1=C(c2ccc(C)cc2C)C(=O)C2CCCCC12 (stereo not drawn) [Compound 26, 3-(2-ethylhexanoyloxy)-2-(2',4'-dimethylphenyl)-4,5,6,7,8,9-hexahydro-2-indenone] | A | 2 | 5 | 2 | 2 | 2 | 5 | 1 | 1 |  |  |  |  |  |  |  |  |  |
| CCCCC(CC)C(=O)OC1=C(c2cc(C)ccc2C)C(=O)C2CCCCC12 (stereo not drawn) [Compound 30, 3-(2-ethylhexanoyloxy)-2-(2',5'-dimethylphenyl)-4,5,6,7,8,9-hexahydro-2-indenone] | A | 1 | 2 | 1 | 1 | 1 | 1 | 1 | 1 |  |  |  |  |  |  |  |  |  |
| CC(=O)OC1=C(c2cc(C)ccc2C)C(=O)C(C)C1 (stereo not drawn) [Compound 15] | A | 2 | 3 | 2 | 2 | 2 | 4 | 2 | 3 |  |  |  |  |  |  |  |  |  |
| CCCCC(CC)C(=O)OC1=C(c2ccc(C)cc2C)C(=O)CC1 (stereo not drawn) [Compound 9, 3-(2-ethylhexanoyloxy)-2-(2', 4'-dimethylphenyl)-2-cyclopentenone] | A | 2 | 3 | 1 | 1 | 1 | 5 | 4 | 2 |  |  |  |  |  |  |  |  |  |
| CCCCC(CC)C(=O)OC1=C(c2ccccc2C)C(=O)C2CCCCC12 (stereo not drawn) [Compound 21, 3-(2-Ethylhexanoyloxy)-2-(2'-methylphenyl)-4,5,6,7,8,9-hexahydro-2-indenone] | A | 1 | 5 | 1 | 2 | 2 | 3 | 2 | 2 |  |  |  |  |  |  |  |  |  |
| CCCCC(CC)C(=O)OC1=C(c2ccccc2Cl)C(=O)CC1 (stereo not drawn) [Compound 1] | A | 3 | 4 | 2 | 3 | 3 | 5 | 5 | 5 |  |  |  |  |  |  |  |  |  |
| O=C1CCC(OC(=O)c2ccccc2)=C1c1ccccc1Cl [Compound 2] | A | 3 | 3 | 2 | 2 | 2 | 4 | 3 | 1 |  |  |  |  |  |  |  |  |  |
| CCCCCCCCCC(=O)OC1=C(c2cc(C)ccc2C)C(=O)C2CCCCC12 (stereo not drawn) [drawing 19] |  |  |  |  |  |  |  |  |  | 25 (≈ 60.9 µM) | 1 | 2 | 1 | 1 | 1 | 1 | 1 | 1 |
